# In patent US20140363454A1, “Antibody-Drug Conjugates, Compositions and Methods of Use” (Igenica Biotherapeutics, Inc., priority 2013, published 2014):
# Where two headings read alike, the source gives them in different places. Where a SMILES comes first, the peptide text is derived from it. [ ]: non-standard residue; d: D form. Dolaproine = CO[C@@H]([C@@H]1CCCN1)[C@@H](C)C(=O)O; Dil = CC[C@H](C)[C@H](NC)[C@@H](CC(=O)O)OC; NMeV = CN[C@H](C(=O)O)C(C)C
# Test system: BT474 (HER2+) cell line
# Assay: Standard cellular cytotoxicity assay, BT474 (HER2+) cell line
# Format: cell-based, human
# Text: The cytotoxicity of tubulysins T1 and T2 was compared to the cytotoxicity of MMAF using the BT474 (HER2+) cell line in a standard cellular cytotoxicity assay.
Structure (SMILES),"IC50 (Homo sapiens, BT-474)",IC50
CC[C@H](C)[C@H](NC(=O)[C@H]1CCCCN1C)C(=O)N(C)[C@H](C[C@@H](OC(C)=O)c1nc(C(=O)N[C@@H](Cc2ccccc2)C[C@H](C)C(=O)O)cs1)C(C)C [Entry T2],< 0.1 nM,–
"CC[C@H](C)[C@@H]([C@@H](CC(=O)N1CCC[C@H]1[C@H](OC)[C@@H](C)C(=O)N[C@@H](Cc1ccccc1)C(=O)O)OC)N(C)C(=O)[C@@H](NC(=O)[C@@H](NC)C(C)C)C(C)C [MMAF, monomethylauristatin F] (H-[NMeV]V[Dil][Dolaproine]F-OH)",–,93 nM
CC[C@H](C)[C@H](NC(=O)[C@H]1CCCCN1C)C(=O)N(C)[C@H](C[C@@H](OC(C)=O)c1nc(C(=O)O)cs1)C(C)C [Entry T1],11 nM,–
